Data published in patent US20070232601A1, “Vla-4 Inhibitor” (priority 2004, published 2007).
Marks after values point to notes of the source that are not given here.

Key:
[1] = Dispersibility test in Japanese Pharmacopoeia First and Second Solution; type: physicochemical; conditions: for Dispersibility in Japanese Pharmacopoeia First Solution: JP1, pH 1.2; for Dispersibility in Japanese Pharmacopoeia Second Solution: JP2, pH 6.8
Procedure: Dispersibility of a test substance in Japanese Pharmacopoeia First Solution (JP1, pH 1.2) and Japanese Pharmacopoeia Second Solution (JP2, pH 6.8) was evaluated.

[2] = Intracorporeal kinetics and oral absorbing property test (dog, oral cassette); type: in vivo; conditions: orally administered, 0.5 mg/kg cassette; for AUC (total area under the plasma concentration versus time curve): LC/MS/MS
Procedure: Intracorporeal Kinetics and Oral Absorbing Property Test: A pharmacokinetic parameter when a test substance was orally administered to a dog by 0.5 mg/kg cassette was as follows.

eosinophils in BALF = assay: Ascaris active sensitization-induced mouse eosinophil infiltration test; type: in vivo; conditions: test substance orally administered two times per day, BALF 48 hours after inducement; for Inhibition rate: vs Ascaris-induced group
Procedure: Ascaris (Ascaris suum Antigen in pigs) active sensitization-induced mouse eosinophil infiltration test:
It has been reported that cell infiltration of eosinophil is induced by inducing Ascaris active sensitization {Int. Arch. Immunol., 108, 11-18, (1995)}. In this evaluation method, a test compound was evaluated. A test substance was orally administered two times per day, the total count of cells and the count of eosinophils in BALF 48 hours after inducement were calculated, and the effect was determined by comparing with a non-test substance administered group.
Results of mouse eosinophil infiltration test ^1 anti-VLA-4 antibody, two times/1 day s.c. administration; **p<0.01: vs D, cont by student's t-test

[3] = target: T1, hα4 and β1 integrins (VLA-4) (Homo sapiens, UniProt P05556+P13612); assay: In vitro evaluation: inhibition of binding of CHO cells expressing hα4 and β1 integrins to Eu3+-hVCAM-1 D1D7-IgG; conditions: ligand Eu3+-hVCAM-1 D1D7-IgG 2 nM, Ki calculated from IC50
T1 construct: expressed in transfected cells; host or cells: CHO cells
Outline: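 CHO cells stably expressing hα4β1 were cultured 2 days, then incubated 1 h at room temperature with Eu3+-hVCAM-1 D1D7-IgG (added as 2 nM solution) and compound in HEPES pH 7.5 with Ca2+, Mg2+ and 4 mM Mn2+, ± 6% human serum albumin. Bound europium was read by time-resolved fluorescence; IC50 was converted to Ki using Scatchard-derived Kd.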

T1 sequence (P13612 34-1032): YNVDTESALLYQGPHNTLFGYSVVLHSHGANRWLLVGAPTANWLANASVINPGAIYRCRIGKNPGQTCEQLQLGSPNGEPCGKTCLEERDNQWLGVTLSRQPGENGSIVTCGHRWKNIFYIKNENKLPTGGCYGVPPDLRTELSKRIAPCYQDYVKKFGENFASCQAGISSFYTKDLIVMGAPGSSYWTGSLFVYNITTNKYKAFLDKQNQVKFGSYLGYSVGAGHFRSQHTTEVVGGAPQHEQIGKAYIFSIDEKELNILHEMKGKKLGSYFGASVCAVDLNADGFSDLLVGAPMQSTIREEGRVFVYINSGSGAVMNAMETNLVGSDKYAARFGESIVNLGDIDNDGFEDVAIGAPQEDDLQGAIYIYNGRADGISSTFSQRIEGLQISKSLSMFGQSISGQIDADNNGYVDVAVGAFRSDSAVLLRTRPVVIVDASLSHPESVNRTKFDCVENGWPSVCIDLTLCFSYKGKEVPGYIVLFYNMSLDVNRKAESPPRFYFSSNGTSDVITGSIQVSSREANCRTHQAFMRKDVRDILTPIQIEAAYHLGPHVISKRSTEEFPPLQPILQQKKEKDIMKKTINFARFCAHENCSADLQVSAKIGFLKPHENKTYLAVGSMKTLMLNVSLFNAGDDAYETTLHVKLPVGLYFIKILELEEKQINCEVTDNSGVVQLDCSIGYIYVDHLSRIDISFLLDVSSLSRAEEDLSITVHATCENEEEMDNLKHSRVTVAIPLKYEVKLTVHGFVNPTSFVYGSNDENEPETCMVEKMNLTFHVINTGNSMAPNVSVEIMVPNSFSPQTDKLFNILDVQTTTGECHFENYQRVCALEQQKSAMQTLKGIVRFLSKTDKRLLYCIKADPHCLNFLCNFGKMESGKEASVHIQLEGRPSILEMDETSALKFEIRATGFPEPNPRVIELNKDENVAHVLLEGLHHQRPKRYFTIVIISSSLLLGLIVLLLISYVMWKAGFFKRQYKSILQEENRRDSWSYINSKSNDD
T1 sequence (P05556 21-798): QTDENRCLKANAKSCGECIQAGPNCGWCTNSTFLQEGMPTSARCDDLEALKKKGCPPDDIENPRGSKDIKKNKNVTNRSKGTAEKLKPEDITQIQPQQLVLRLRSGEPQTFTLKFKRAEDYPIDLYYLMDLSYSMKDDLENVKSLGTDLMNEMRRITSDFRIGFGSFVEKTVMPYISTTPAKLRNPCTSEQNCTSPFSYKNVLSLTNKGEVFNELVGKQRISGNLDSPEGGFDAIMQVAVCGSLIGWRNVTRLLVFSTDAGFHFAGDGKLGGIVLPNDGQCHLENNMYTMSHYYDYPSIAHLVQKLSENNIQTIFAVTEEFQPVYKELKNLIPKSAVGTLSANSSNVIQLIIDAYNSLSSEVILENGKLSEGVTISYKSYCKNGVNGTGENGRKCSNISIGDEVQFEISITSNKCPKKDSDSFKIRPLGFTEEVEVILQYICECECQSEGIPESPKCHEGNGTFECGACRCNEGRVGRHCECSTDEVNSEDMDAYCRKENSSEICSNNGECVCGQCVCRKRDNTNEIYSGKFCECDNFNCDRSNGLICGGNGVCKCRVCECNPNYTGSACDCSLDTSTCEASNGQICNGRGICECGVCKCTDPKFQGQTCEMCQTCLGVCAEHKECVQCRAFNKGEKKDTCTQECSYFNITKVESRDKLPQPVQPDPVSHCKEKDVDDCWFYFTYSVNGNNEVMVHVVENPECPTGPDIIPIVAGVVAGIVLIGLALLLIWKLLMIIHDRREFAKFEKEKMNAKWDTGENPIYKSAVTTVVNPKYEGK

SMILES	Dispersibility in Japanese Pharmacopoeia First Solution [1] [µg/mL]	Dispersibility in Japanese Pharmacopoeia Second Solution [1] [µg/mL]	Cltot (apparent plasma clearance) [2] [mL/min/kg]	AUC (total area under the plasma concentration versus time curve) [2] [ng·h/mL]	Average total eosinophil count (eosinophils in BALF)	Inhibition rate (eosinophils in BALF)	Ki [3] [nM]
CO[C@H]1C[C@@H](c2ncc(CCC(=O)O)s2)N(C(=O)Cc2cc(Cl)c(NC(=O)c3cn(C)c4ccccc34)cc2Cl)C1 [Example 1, 3-[2-[1-[2,5-Dichloro-4-(1-methyl-3-indolylcarbonylamino)phenylacetyl]-(4S)-methoxy-(2S)-pyrrolidinyl]-5-thiazolyl]propionic acid]	33	>2000	1.23	7040	1.52 ×10^5	57** %	1.3
CO[C@H]1C[C@@H](c2ncc(CCC(=O)O)s2)N(C(=O)Cc2cc(Cl)c(NC(=O)c3cn(C)c4ccccc34)cc2F)C1 [Example 2, 3-[2-[1-[5-Chloro-2-fluoro-4-(1-methyl-3-indolylcarbonyl)aminophenylacetyl]-(4S)-methoxy-(2S)-pyrrolidinyl]-5-thiazolyl]propionic acid]	97	>2000	0.81	10690			0.85
CO[C@H]1C[C@@H](c2ncc(CCC(=O)O)s2)N(C(=O)Cc2cc(Cl)c(NC(=O)c3csc4ccccc34)cc2F)C1 [Example 4, 3-[2-[1-[4-[(3-Benzo[b]thienylcarbonyl)amino]-5-chloro-2-fluorophenylacetyl]-(4S)-methoxy-(2S)-pyrrolidinyl]-5-thiazolyl]propionic acid]			0.82	10240			0.72
CC(C)O[C@H]1C[C@@H](c2ncc(CCC(=O)O)s2)N(C(=O)Cc2cc(Cl)c(NC(=O)c3csc4ccccc34)cc2F)C1 [Example 36, 3-[2-[1-[4-[(3-Benzo[b]thienylycarbonyl)amino]-5-chloro-2-fluorophenylacetyl]-4S-isopropoxy-(2S)-pyrrolidinyl]-5-thiazolyl]propionic acid]			0.57	14935			1.7
Cn1cc(C(=O)Nc2cc(Cl)c(CC(=O)N3C[C@@H](N4CCCCC4)C[C@H]3c3ncc(CCC(=O)O)s3)cc2Cl)c2ccccc21 [Example 46, 3-[2-[1-[2,5-Dichloro-4-(1-methyl-3-indolylcarbonylamino)phenylacetyl]-(4S=)=1-piperidinyl-(2S)-pyrrolidinyl]-5-thiazolyl]propionic acid]	>2000	570			1.44 ×10^5	53** %	1.6
CCOC[C@@H]1CC[C@@H](c2ncc(CCC(=O)O)s2)N1C(=O)Cc1ccc2nc(Nc3cc(F)ccc3C)oc2c1F [Example 51, 3-[2-[(5S)-ethoxymethyl-1-[7-fluoro-2-(5-fluoro-2-methylphenyl)amino-6-benzoxazolylacetyl]-(2S)-pyrrolidinyl]-5-thiazolyl]propionic acid]	88	>800	0.26	32310			4.6
COC[C@@H]1CC[C@@H](c2ncc(CCC(=O)O)s2)N1C(=O)Cc1ccc2nc(Nc3cc(F)ccc3C)oc2c1F [Example 57, 3-[2-[1-[7-Fluoro-2-(5-fluoro-2-methylphenyl)-amino-6-benzoxazolylacetyl]-(5S)-methoxymethyl-(2S)-pyrrolidinyl]-5-thiazolyl]propionic acid]			0.31	27620			4.4
COC[C@@H]1CC[C@@H](c2ncc(CCC(=O)O)s2)N1C(=O)Cc1ccc2nc(Nc3cc(F)ccc3C)oc2c1 [Example 58]			0.59	14860			6.7
Cn1cc(C(=O)Nc2cc(Cl)c(CC(=O)N3[C@H](c4ncc(CCC(=O)O)s4)C[C@@H]4CCCC[C@@H]43)cc2Cl)c2ccccc21 [Example 60, 3-[2-[1-[2,5-Dichloro-4-(1-methyl-3-indolylcarbonyl)aminophenylacetyl]-(2S)-octahydroindolyl]-5-thiazolyl]propionic acid]			0.42	19770			8.6
CO[C@H]1C[C@@H](c2ncc(CCC(=O)O)s2)N(C(=O)Cc2cc(Cl)c(Nc3nc4ccccc4s3)cc2Cl)C1 [Example 112, 3-[2-[1-[4-(2-Benzothiazolyl)amino-2,5-dichlorophenyl]acetyl-(4S)-methoxy-(2S)-pyrrolidinyl]-5-thiazolyl]propionic acid]	420	770					1.9
CO[C@H]1C[C@@H](c2ncc(CCC(=O)O)s2)N(C(=O)Cc2cc(Cl)c(Nc3nc4cc(F)ccc4s3)cc2F)C1 [Example 113, 3-[2-[1-[4-(5-Fluoro-2-benzothiazolyl)amino-5-chloro-2-fluorophenyl]acetyl-(4S)-methoxy-(2S)-pyrrolidinyl]-5-thiazolyl]propionic acid]	180	770					5
O=C(O)CCc1cnc([C@@H]2[C@@H](O)CCN2C(=O)Cc2ccc(Nc3nc4ccccc4s3)c(Cl)c2)s1 [Example 119, 3-[2-[1-[4-(2-Benzothiazolyl)amino-3-chlorophenyl]acetyl-(3S)-hydroxy-(2S)-pyrrolidinyl]-5-thiazolyl]propionic acid]	730	730					6.2
O=C(O)CCc1cnc([C@@H]2[C@@H](O)CCN2C(=O)Cc2cc(Cl)c(Nc3nc4ccccc4s3)cc2F)s1 [Example 120, 3-[2-[1-[4-(2-Benzothiazolyl)amino-5-chloro-2-fluorophenyl]acetyl-(3S)-hydroxy-(2S)-pyrrolidinyl]-5-thiazolyl]propionic acid]	320	760					9.8
O=C(O)CCc1cnc([C@@H]2[C@@H](O)CCN2C(=O)Cc2cc(Cl)c(Nc3nc4ccccc4s3)cc2Cl)s1 [Example 121, 3-[2-[1-[4-(2-Benzothiazolyl)amino-2,5-dichlorophenyl]acetyl-(3S)-hydroxy-(2S)-pyrrolidinyl]-5-thiazolyl]propionic acid]	160	780					8.5
